{
  "source": "patent US8138377B2",
  "about": "“Arylbicyclo[3.1.0]hexylamines and methods and compositions for their preparation and use” (DOV Pharmaceutical, Inc., priority 2007, dated 2012)",
  "key": {"[1]": {"molecular_target": "T1, norepinephrine (NE) transport (Rattus norvegicus, UniProt Q63380)", "T1 construct": "synaptosomal preparations were made from either whole brain (5-HT), striatum (DA) or hypothalamus (NE); from tissue; host or cells: rat hypothalamus synaptosomes", "T1 sequence (Q63380 1-617)": "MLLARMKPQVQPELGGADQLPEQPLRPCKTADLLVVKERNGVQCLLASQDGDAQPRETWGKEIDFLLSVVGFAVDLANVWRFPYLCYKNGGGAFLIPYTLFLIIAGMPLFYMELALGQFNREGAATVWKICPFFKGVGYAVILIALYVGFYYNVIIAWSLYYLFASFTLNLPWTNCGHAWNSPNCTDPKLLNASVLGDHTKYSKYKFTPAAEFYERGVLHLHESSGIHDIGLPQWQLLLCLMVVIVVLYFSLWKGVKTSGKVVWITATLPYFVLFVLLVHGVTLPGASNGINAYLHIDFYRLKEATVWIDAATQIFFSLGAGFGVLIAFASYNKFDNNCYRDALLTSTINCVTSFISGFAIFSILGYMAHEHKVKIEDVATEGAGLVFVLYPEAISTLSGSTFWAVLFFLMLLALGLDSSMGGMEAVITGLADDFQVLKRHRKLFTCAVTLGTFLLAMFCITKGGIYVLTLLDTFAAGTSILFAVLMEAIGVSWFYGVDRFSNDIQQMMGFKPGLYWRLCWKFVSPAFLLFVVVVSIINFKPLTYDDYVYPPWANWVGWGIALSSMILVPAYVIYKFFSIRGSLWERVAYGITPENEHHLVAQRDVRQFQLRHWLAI", "assay": "Inhibition of [3H]NE uptake in rat hypothalamus synaptosomes", "type": "biochemical", "method": "(§1) The effects of arylbicyclo[3.1.0]hexylamines of the invention for inhibiting transport of norepinephrine (NE) and/or dopamine (DA) and/or serotonin (5-HT) were evaluated using preparations of synaptosomes from different regions of the rat brain according to previously-reported techniques.\n(§2) Whole brains were obtained from normal rats, and synaptosomal preparations were made from either whole brain (5-HT), striatum (DA) or hypothalamus (NE) by gentle disruption in 10 volumes (w/v) of 0.32 M sucrose (0-4° C.) using a Teflon-glass homogenizer. The homogenate was then centrifuged at 1000×g for 10 min. The supernatant was retained and centrifuged at 23000 g for 20 min. The resulting pellet was gently resuspended in 200 volumes of 0.32 M sucrose (0-4° C.) using a teflon-glass homogenizer. Aliquots (250 μL) of this preparation were added to tubes, along with 0.2 μCi/mL of [^3H]5-HT, [^3H]DA, or [^3H]NE, 200 μL of selected 1-arylbicyclo[3.1.0]hexanamine test compounds (to yield final concentrations of 500 nM) and 1 mL of Krebs-Ringer bicarbonate buffer (pH 7.4). […] At the end of this period, the assay was terminated by rapid filtration over Whatman GF/C glass fiber filters. The filters were rinsed 3 times with 4 ml of Krebs-Ringer bicarbonate buffer (0-4° C.), and the radioactivity retained on the filters was measured by liquid scintillation spectrometry."}, "[2]": {"molecular_target": "T2, dopamine (DA) transport (Rattus norvegicus, UniProt P23977)", "T2 construct": "synaptosomal preparations were made from either whole brain (5-HT), striatum (DA) or hypothalamus (NE); from tissue; host or cells: rat striatum synaptosomes", "T2 sequence (P23977 whole entry)": "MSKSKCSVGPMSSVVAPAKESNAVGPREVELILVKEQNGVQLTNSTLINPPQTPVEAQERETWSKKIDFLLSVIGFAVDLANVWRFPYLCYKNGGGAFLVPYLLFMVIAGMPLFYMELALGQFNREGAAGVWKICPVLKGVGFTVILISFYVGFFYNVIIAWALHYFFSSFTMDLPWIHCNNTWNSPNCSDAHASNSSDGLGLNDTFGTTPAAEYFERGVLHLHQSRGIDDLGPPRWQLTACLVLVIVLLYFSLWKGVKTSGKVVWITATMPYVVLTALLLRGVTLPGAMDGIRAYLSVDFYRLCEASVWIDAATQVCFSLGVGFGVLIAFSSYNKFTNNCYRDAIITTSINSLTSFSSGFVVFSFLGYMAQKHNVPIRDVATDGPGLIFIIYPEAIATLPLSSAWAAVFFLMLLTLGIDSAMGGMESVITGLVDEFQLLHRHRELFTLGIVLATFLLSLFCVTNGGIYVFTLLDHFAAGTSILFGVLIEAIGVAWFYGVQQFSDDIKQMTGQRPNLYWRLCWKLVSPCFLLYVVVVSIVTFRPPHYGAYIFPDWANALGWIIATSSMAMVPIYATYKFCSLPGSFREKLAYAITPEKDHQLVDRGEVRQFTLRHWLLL", "assay": "biochemical", "method": "as §1, §2"}, "[3]": {"molecular_target": "T3, serotonin (5-HT) transport (Rattus norvegicus, UniProt P31652)", "T3 construct": "synaptosomal preparations were made from either whole brain (5-HT), striatum (DA) or hypothalamus (NE); from tissue; host or cells: rat whole brain synaptosomes", "T3 sequence (P31652 whole entry)": "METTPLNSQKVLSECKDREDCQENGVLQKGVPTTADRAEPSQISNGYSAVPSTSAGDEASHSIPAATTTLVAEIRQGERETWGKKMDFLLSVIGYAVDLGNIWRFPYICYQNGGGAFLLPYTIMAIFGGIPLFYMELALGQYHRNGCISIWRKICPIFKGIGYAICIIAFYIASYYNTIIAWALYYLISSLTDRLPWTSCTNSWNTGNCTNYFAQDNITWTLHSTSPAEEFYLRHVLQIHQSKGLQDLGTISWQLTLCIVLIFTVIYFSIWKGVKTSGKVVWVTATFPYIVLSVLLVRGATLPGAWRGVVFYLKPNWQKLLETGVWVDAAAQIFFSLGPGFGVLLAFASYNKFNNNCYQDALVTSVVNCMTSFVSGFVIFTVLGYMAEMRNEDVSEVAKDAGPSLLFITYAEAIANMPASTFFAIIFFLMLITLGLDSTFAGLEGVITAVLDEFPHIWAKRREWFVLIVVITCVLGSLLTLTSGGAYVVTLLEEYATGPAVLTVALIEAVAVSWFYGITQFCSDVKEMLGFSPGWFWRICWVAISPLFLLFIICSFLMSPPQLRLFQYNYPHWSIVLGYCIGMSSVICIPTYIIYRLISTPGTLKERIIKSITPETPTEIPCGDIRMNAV", "assay": "biochemical", "method": "as §1, §2"}},
  "data": [
    {"smiles": "CNC1CC2CC2(c2cccc3ccccc23)C1", "note": "(stereo not drawn)", "values": [
      {"measurement": "IC50", "setting": "[1]", "result": 74, "unit": "nM"},
      {"measurement": "inhibition at 0.5 µM", "setting": "[1]; 500 nM, 20 min, 37° C.", "result": 81, "unit": "%"},
      {"measurement": "IC50", "setting": "[2]", "result": 8730, "unit": "nM"},
      {"measurement": "inhibition at 0.5 µM", "setting": "[2]; read-out: Uptake Inhibition % at 500 nM DA", "result": 23, "unit": "%"},
      {"measurement": "IC50", "setting": "[3]", "result": 76, "unit": "nM"},
      {"measurement": "inhibition at 0.5 µM", "setting": "[3]; read-out: Uptake Inhibition % at 500 nM 5-HT", "result": 82, "unit": "%"}
    ]}
  ]
}
